Experimental data taken from article PMC9199881 (Clinical and Translational Science, 2022).

Key:
other CYP enzymes = conditions: enzymatic studies; cited from earlier work
[1] = test system: mouse immune thrombocytopenia model; conditions: cited from earlier work
healthy subjects [2] = assay: Safety assessment; format: in vivo, human
[3] = test system: human ether-a-go-go-related gene (hERG) current; conditions: 10 μM; hERG-transfected HEK293 cells; ref unpublished preclinical safety studies; cited from earlier work
[4] = Plasma pharmacokinetics, Part A; format: in vivo, human; conditions: for AUC(0-t) / AUC(0-inf) / Cmax / Tmax / half-life: human, plasma, oral; for AUC(0-t): AUC0–last; for AUC(0-inf): AUC0–∞
healthy subjects [5] = assay: Safety assessment; format: in vivo, human; conditions: Part A
[6] = test system: collagen-induced arthritis in rats; conditions: cited from earlier work
[7] = test system: spontaneous canine pemphigus foliaceus; conditions: cited from earlier work
[8] = Plasma pharmacokinetics, Part B; conditions: for AUC(0-inf): AUC0–∞
patients with PV and ITP = conditions: rilzabrutinib 400 mg b.i.d.; cited from earlier work
healthy subjects [9] = assay: Concentration-QTc; format: in vivo, human
[10] = cited from earlier work
healthy subjects [11] = assay: ECG by timepoint analysis and categorical outliers, Part B; format: in vivo, human
[12] = test system: rat antibody-mediated Arthus model; conditions: cited from earlier work
[13] = test system: cytochrome P450 3A4 (CYP3A4); conditions: enzymatic studies; cited from earlier work
[14] = Part B, 400 mg rilzabrutinib plus ritonavir
[15] = Part B, rilzabrutinib 400 mg + ritonavir 100 mg, first column of the group
[16] = Part B, rilzabrutinib 400 mg + ritonavir 100 mg, second column of the group
[17] = 1200 mg, Mean (SD), rilzabrutinib 1200 mg single dose
[18] = 1200 mg, Median (range), rilzabrutinib 1200 mg single dose
[19] = Mean (SD), rilzabrutinib 100 mg + ritonavir 100 mg b.i.d., rilzabrutinib in plasma
[20] = Median (range), rilzabrutinib 100 mg + ritonavir 100 mg b.i.d., rilzabrutinib in plasma
[21] = rilzabrutinib 100 mg + ritonavir 100 mg vs 100 mg alone
[22] = rilzabrutinib 100 mg + ritonavir 100 mg
[23] = human, in vivo, 400 mg, Mean (SD), 400 mg single dose alone
[24] = human, in vivo, 400 mg, Median (range), 400 mg single dose alone
[25] = Part B, linear model with an intercept

## CC(C)(/C=C(\C#N)C(=O)N1CCC[C@@H](n2nc(-c3ccc(Oc4ccccc4)cc3F)c3c(N)ncnc32)C1)N1CCN(C2COC2)CC1 [Rilzabrutinib, rilzabrutinib]
Other CYP enzymes
  interaction with other CYP enzymes: no significant interaction
[1]
  anti-inflammatory effects: rapid and significant anti‐inflammatory effects
Healthy subjects [2]; Part B
  serious TEAEs or deaths: no serious TEAEs or deaths
Healthy subjects [2]; Part B, 400 mg alone
  Treatment-related TEAE: Abdominal pain, n (%): 3 (9.4) n (%)
  Treatment-related TEAE: Diarrhea, n (%): 9 (28.1) n (%)
  Treatment-related TEAE: Dizziness, n (%): 0 n (%)
  Treatment-related TEAE: Dysgeusia, n (%): 1 (3.1) n (%)
  Treatment-related TEAE: Frequent bowel movements, n (%): 0 n (%)
  Treatment-related TEAE: Gastrointestinal disorders, n (%): 13 (40.6) n (%)
  Treatment-related TEAE: Headache, n (%): 1 (3.1) n (%)
  Treatment-related TEAE: Herpex simplex, n (%): 0 n (%)
  Treatment-related TEAE: Infections and infestations, n (%): 0 n (%)
  Treatment-related TEAE: Lethargy, n (%): 0 n (%)
  Treatment-related TEAE: Nervous system disorders, n (%): 2 (6.3) n (%)
  Treatment-related TEAE: Somnolence, n (%): 0 n (%)
  Treatment-related TEAE: Subjects with ≥1 TEAE, n (%): 14 (43.8) n (%)
  Treatment-related TEAE: Vomiting, n (%): 0 n (%)
  incidence of treatment-related TEAEs: 43.8%
  participants with diarrhea: 28.1%
Healthy subjects [2]; [14]
  incidence of treatment-related TEAEs: 44.1%
  participants with diarrhea: 35.3%
Healthy subjects [2]; Part B, nausea with 400 mg and diarrhea with 400 mg plus 100 mg ritonavir, in two participants
  moderate (grade 2) rilzabrutinib related TEAEs: two moderate (grade 2) rilzabrutinib related TEAEs
Healthy subjects [2]; [15]
  Treatment-related TEAE: Abdominal pain, n (%): 0 n (%)
  Treatment-related TEAE: Diarrhea, n (%): 12 (35.3) n (%)
  Treatment-related TEAE: Dizziness, n (%): 0 n (%)
  Treatment-related TEAE: Dysgeusia, n (%): 2 (5.9) n (%)
  Treatment-related TEAE: Frequent bowel movements, n (%): 1 (2.9) n (%)
  Treatment-related TEAE: Gastrointestinal disorders, n (%): 14 (41.2) n (%)
  Treatment-related TEAE: Headache, n (%): 0 n (%)
  Treatment-related TEAE: Herpex simplex, n (%): 1 (2.9) n (%)
  Treatment-related TEAE: Infections and infestations, n (%): 1 (2.9) n (%)
  Treatment-related TEAE: Lethargy, n (%): 0 n (%)
  Treatment-related TEAE: Nervous system disorders, n (%): 3 (8.8) n (%)
  Treatment-related TEAE: Somnolence, n (%): 2 (5.9) n (%)
  Treatment-related TEAE: Vomiting, n (%): 0 n (%)
Healthy subjects [2]; [16]
  Treatment-related TEAE: Abdominal pain, n (%) [second column of the group]: 0 n (%)
  Treatment-related TEAE: Diarrhea, n (%) [second column of the group]: 12 n (%)
  Treatment-related TEAE: Dizziness, n (%) [second column of the group]: 0 n (%)
  Treatment-related TEAE: Dysgeusia, n (%) [second column of the group]: 2 n (%)
  Treatment-related TEAE: Headache, n (%) [second column of the group]: 0 n (%)
  Treatment-related TEAE: Herpex simplex, n (%) [second column of the group]: 1 n (%)
  Treatment-related TEAE: Lethargy, n (%) [second column of the group]: 0 n (%)
  Treatment-related TEAE: Nausea, n (%) [second column of the group]: 4 n (%)
  Treatment-related TEAE: Somnolence, n (%) [second column of the group]: 2 n (%)
  Treatment-related TEAE: Vomiting, n (%) [second column of the group]: 0 n (%)
Healthy subjects [2]; at the studied doses
  changes in clinical chemistry: No clinically meaningful changes
  safety profile: acceptable safety profile
[3]
  signal on hERG current: no signal
[4]; [17]
  AUC(0-t): 2470 ng·h/mL
  AUC(0-inf): 2470 ng·h/mL
  Cmax: 569 ng/mL
  Tmax: 2.9 h
[4]; [18]
  AUC(0-t): 551 ng·h/mL
  AUC(0-inf): 553 ng·h/mL
  Cmax: 136 ng/mL
  Tmax: ~3 h
[4]; 1200 mg, t 1/2, Mean (SD), rilzabrutinib 1200 mg single dose
  half-life: 3.1 h
[4]; 1200 mg, t 1/2, Median (range), rilzabrutinib 1200 mg single dose
  half-life: 3.2 h
[4]; [19]
  AUC(0-t): 1080 ng·h/mL
  AUC(0-inf): 1100 ng·h/mL
  Cmax: 223 ng/mL
  Tmax: 2.3 h
[4]; [20]
  AUC(0-t): 771 ng·h/mL
  AUC(0-inf): 778 ng·h/mL
  Cmax: 157 ng/mL
  Tmax: 2.5 h
[4]; t 1/2, Mean (SD), rilzabrutinib 100 mg + ritonavir 100 mg b.i.d., rilzabrutinib in plasma
  half-life: 4 h
[4]; t 1/2, Median (range), rilzabrutinib 100 mg + ritonavir 100 mg b.i.d., rilzabrutinib in plasma
  half-life: 4 h
[4]; [21]
  increase in rilzabrutinib AUC0–∞ with ritonavir over rilzabrutinib alone: 17 fold
  increase in rilzabrutinib Cmax with ritonavir over rilzabrutinib alone: 7 fold
[4]; rilzabrutinib 100 mg single dose
  Tmax, Median (range): 1.0 (0.5–2.0) h
[4]; rilzabrutinib 1200 mg single dose
  Tmax, Median (range): 3.0 (1.5–4.0) h
Healthy subjects [5]
  serious TEAEs, deaths, or TEAEs leading to study drug interruption/discontinuation: no serious TEAEs, deaths, or TEAEs leading to study drug interruption/discontinuation
  severity of rilzabrutinib-related TEAEs: mostly mild (grade 1)
Healthy subjects [5]; 100 mg plus ritonavir 100 mg, one event in one participant
  participants with TEAEs deemed related to rilzabrutinib treatment: 9.1%
Healthy subjects [5]; 1200 mg, five events in three participants
  participants with TEAEs deemed related to rilzabrutinib treatment (GI-related): 75%
Healthy subjects [5]; following 100 mg rilzabrutinib
  rilzabrutinib-related TEAEs: no rilzabrutinib‐related TEAEs reported
Healthy subjects [5]; rilzabrutinib 100 mg
  Treatment-related TEAE: Diarrhea, n (%): 0 n (%)
  Treatment-related TEAE: Dizziness, n (%): 0 n (%)
  Treatment-related TEAE: Gastrointestinal disorders, n (%): 0 n (%)
  Treatment-related TEAE: Nausea, n (%): 0 n (%)
  Treatment-related TEAE: Nervous system disorders, n (%): 1 (8.3) n (%)
  Treatment-related TEAE: Orthostatic hypotension, n (%): 0 n (%)
  Treatment-related TEAE: Subjects with ≥1 TEAE, n (%): 0 n (%)
  Treatment-related TEAE: Vascular disorders, n (%): 0 n (%)
  Treatment-related TEAE: Vomiting, n (%): 0 n (%)
Healthy subjects [5]; [22]
  Treatment-related TEAE: Diarrhea, n (%): 0 n (%)
  Treatment-related TEAE: Dizziness, n (%): 1 (9.1) n (%)
  Treatment-related TEAE: Gastrointestinal disorders, n (%): 0 n (%)
  Treatment-related TEAE: Nausea, n (%): 0 n (%)
  Treatment-related TEAE: Orthostatic hypotension, n (%): 0 n (%)
  Treatment-related TEAE: Subjects with ≥1 TEAE, n (%): 1 (9.1) n (%)
  Treatment-related TEAE: Vascular disorders, n (%): 0 n (%)
  Treatment-related TEAE: Vomiting, n (%): 0 n (%)
Healthy subjects [5]; rilzabrutinib 1200 mg
  Treatment-related TEAE: Diarrhea, n (%): 2 (50.0) n (%)
  Treatment-related TEAE: Dizziness, n (%): 1 (25.0) n (%)
  Treatment-related TEAE: Gastrointestinal disorders, n (%): 3 (75.0) n (%)
  Treatment-related TEAE: Nausea, n (%): 2 (50.0) n (%)
  Treatment-related TEAE: Nervous system disorders, n (%): 1 (25.0) n (%)
  Treatment-related TEAE: Orthostatic hypotension, n (%): 1 (25.0) n (%)
  Treatment-related TEAE: Subjects with ≥1 TEAE, n (%): 3 (75.0) n (%)
  Treatment-related TEAE: Vascular disorders, n (%): 1 (25.0) n (%)
  Treatment-related TEAE: Vomiting, n (%): 1 (25.0) n (%)
Healthy subjects [5]; single dose of 100 mg
  tolerability: well tolerated
[6]
  effect on disease: dose‐dependent reduction and complete reversal of disease
[7]
  anti-inflammatory effects: rapid and significant anti‐inflammatory effects
[8]; 400 mg single dose alone
  Tmax, Median (range): 2.1 (0.6–4.1) h
[8]; human, in vivo, 400 mg, AUC0–last, Mean (SD), 400 mg single dose alone
  AUC(0-t): 455 ng·h/mL
[8]; [23]
  AUC(0-inf): 454 ng·h/mL
  Cmax: 144 ng/mL
  Tmax: 2.1 h
[8]; [24]
  AUC(0-inf): 312 ng·h/mL
  Cmax: 102 ng/mL
  Tmax: ~2.1 h
[8]; human, in vivo, 400 mg, t 1/2, Mean (SD), 400 mg single dose alone
  half-life: 3.9 h
[8]; human, in vivo, 400 mg, t 1/2, Median (range), 400 mg single dose alone
  half-life: 3.1 h
[8]; rilzabrutinib 400 mg + ritonavir 100 mg BID vs 400 mg alone
  increase in rilzabrutinib Cmax with ritonavir: 5 fold
Patients with PV and ITP
  prolonged QTcF interval among safety concerns: did not report prolonged QTcF interval
Healthy subjects [9]; Part B
  concentration–QTc relationship (slope): -0.01 ms/ng/mL
Healthy subjects [9]; Part B, 400 mg alone
  predicted ΔΔQTcF at the observed geometric mean Cmax: -3.4 ms
Healthy subjects [9]; [25]
  estimated population slope of the C-QTc relationship: 0.01 ms per ng/mL
  intercept of the C-QTc relationship: -2.0 ms
Healthy subjects [9]; Part B, rilzabrutinib 400 mg with ritonavir
  predicted ΔΔQTcF at the observed geometric mean Cmax: -9.9 ms
Healthy subjects [9]; both therapeutic and supratherapeutic dose groups
  predicted ΔΔQTcF interval at Cmax: < 0 ms
Healthy subjects [9]; therapeutic and supratherapeutic concentrations
  predicted upper bound 90% CI of QTc effect: < 10 ms
[10]; 400 mg b.i.d.
  accumulation after chronic multiple dosing: minimal accumulation
[10]; healthy volunteers
  delay of absorption by a moderate fat meal: ~ 1 h
[10]; single dose 50–1200 mg, healthy volunteers
  median time to maximum plasma concentration [Tmax]: 0.5 to 2.5 h
[10]; single dose, healthy volunteers
  mean half-life (t 1/2): 1.4 to 3.9 h
Healthy subjects [11]; Part B
  effect on HR: no effect on HR
Healthy subjects [11]; Part B, at the studied doses
  effect on cardiac conduction (PR and QRS intervals): no clinically relevant effect
Healthy subjects [11]; Part B, following 400 mg rilzabrutinib
  treatment-emergent T-wave or U-wave morphology changes: one subject with a flat T wave at two timepoints
Healthy subjects [11]; therapeutic and supratherapeutic (with ritonavir) exposures
  effects on ECG parameters, including the QTc interval: no clinically relevant effects
[12]
  anti-inflammatory effects: rapid and significant anti‐inflammatory effects
[13]
  interaction with CYP3A4: substrate for and weak inhibitor
